Data published in paper PMC6935813, “Assessment of the Aromatase Inhibitory Activity of Ma-Huang-Tang (MHT) and Its Active Compounds” (Evidence-based Complementary and Alternative Medicine : eCAM, 2019).

How the values were obtained:
aromatase [1] = target: T1, aromatase (Homo sapiens, UniProt P11511); assay: Cell-free fluorescence-based aromatase inhibition assay (DBF hydrolysis); assay type: biochemical; set-up: purchased Corning (Woburn, MA, USA); details: DBF substrate
T1 sequence (P11511 1-503): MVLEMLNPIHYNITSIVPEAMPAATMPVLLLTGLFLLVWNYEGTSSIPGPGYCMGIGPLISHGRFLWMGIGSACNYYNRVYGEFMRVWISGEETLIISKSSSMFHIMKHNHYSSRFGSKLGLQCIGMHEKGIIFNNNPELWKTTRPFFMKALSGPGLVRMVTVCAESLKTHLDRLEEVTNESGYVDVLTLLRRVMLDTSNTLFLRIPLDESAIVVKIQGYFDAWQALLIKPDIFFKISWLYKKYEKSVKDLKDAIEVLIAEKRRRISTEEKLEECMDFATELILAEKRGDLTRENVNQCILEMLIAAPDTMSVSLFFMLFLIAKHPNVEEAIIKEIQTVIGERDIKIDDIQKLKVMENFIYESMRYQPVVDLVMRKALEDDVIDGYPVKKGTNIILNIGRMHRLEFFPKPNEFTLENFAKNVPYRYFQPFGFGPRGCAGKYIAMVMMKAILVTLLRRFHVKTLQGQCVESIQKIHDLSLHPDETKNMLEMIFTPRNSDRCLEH
Protocol: Supersomes human CYP19 was obtained from Corning (Woburn, MA, USA). Analytical-grade acetonitrile, methanol, and ultrapure water were purchased from J. T. Baker (Phillipsburg, NJ, USA). Trifluoroacetic acid was of analytical grade and was purchased from Sigma-Aldrich.
The inhibition of aromatase activity by MHT and each component was assessed by measuring the fluorescence intensity of fluorescein produced by the hydrolysis of DBF [20, 28]. […] A 100 μL mixture of aromatase and substrate (2 μM DBF, 40 pmol/mL aromatase, and 4 mg/mL albumin in 50 mM potassium phosphate, pH 7.4) was then added to the sample, and the resulting mixture was incubated for 30 min at 37°C in the dark. After the reaction, the sample was incubated with 150 μL of 2N NaOH for an additional 2 h at 37°C to remove impurities other than fluorescein. […] All experiments were performed three times at separate times.
The results are expressed as the means ± SEMs from multiple experiments. Paired Student's t-tests with Tukey's multiple comparison tests were performed to compare two groups using PRISM software (GraphPad, CA, USA). A p value <0.05 was considered to be statistically significant. Additionally, IC50 values were calculated by sigmoidal dose-response curve fitting (variable slope) using PRISM software.

aromatase [2] = target: T1, aromatase; assay: Cell-based aromatase assay: estrone ELISA in KGN cells given androstenedione; details: estrone level by ELISA; maximum con. 5 mM; read-out: Aromatase inhibition IC50 in KGN cells
Protocol: The human granulosa-like tumor cell line KGN was obtained from RIKEN BioResource Center (Ibaraki, JPN). The cells were grown in Dulbecco's modified Eagle's medium/Ham's F-12 nutrient mix (DMEM/F-12, Welgen, Daejeon, KOR) supplemented with 5% (v/v) fetal bovine serum (FBS) and 0.5% antibiotics (100 U/mL penicillin and 100 μg/mL streptomycin, Gibco BRL, NY, USA) in a humidified atmosphere of 5% CO2 at 37°C. Prior to treatment with MHT and its components in all the experiments, the cells were cultured for 24 h by switching to phenol-red free DMEM/H-12 medium (Welgen, Daejeon, KOR) with 5% (v/v) charcoal-stripped FBS (HyClone, Logan, UT, USA), and the samples were treated under the same conditions.
Cells (4 × 10^4 cells/mL) were placed on a 96-well tissue culture plate and incubated in DMEM/F-12 medium with 5% charcoal-stripped FBS (HyClone, Logan, UT, USA) overnight. After the addition of MHT or its components, the cells were incubated for 24 h. […] The estrone concentration in each of the samples was measured at 450 nm using a Synergy/HTX multimode reader (Bio-Tek Instruments Inc., VT, USA) with an estrone ELISA kit (Abnova, CA, USA), and the cell viability was measured using a CCK-8 assay (Dojindo Laboratories, Tokyo, JPN).
Additionally, IC50 values were calculated by sigmoidal dose-response curve fitting (variable slope) using PRISM software.

| Structure (SMILES) | IC50 (aromatase [1]; maximum con. 10 mM) [mM] | IC50 (aromatase [2]) [mM] | IC50 (aromatase [1]; human CYP19 Supersomes) [mM] |
| --- | --- | --- | --- |
| O=C/C=C/c1ccccc1 [Cinnamaldehyde (4), cinnamaldehyde] | > 10 |  |  |
| O=C(O)/C=C/c1ccccc1 [Cinnamic acid (3), cinnamic acid] | > 10 |  |  |
| O=c1ccc2ccccc2o1 [Coumarin (2), coumarin] | > 10 |  |  |
| CN[C@@H](C)[C@H](O)c1ccccc1 [Ephedrine (1), ephedrine] | > 10 |  |  |
| CC1(C)[C@@H](O[C@H]2O[C@H](C(=O)O)[C@@H](O)[C@H](O)[C@H]2O[C@@H]2O[C@H](C(=O)O)[C@@H](O)[C@H](O)[C@H]2O)CC[C@]2(C)[C@H]3C(=O)C=C4[C@@H]5C[C@@](C)(C(=O)O)CC[C@]5(C)CC[C@@]4(C)[C@]3(C)CC[C@@H]12 [Glycyrrhizin (8), glycyrrhizin] | > 10 |  |  |
| O=C1CC(c2ccc(O)cc2)Oc2cc(O)ccc21 (centres unmarked) [Liquiritigenin (7), liquiritigenin] | 1.61 | 1.41 |  |
| O=C1C[C@@H](c2ccc(O[C@@H]3O[C@H](CO)[C@@H](O)[C@H](O)[C@H]3O)cc2)Oc2cc(O)ccc21 [Liquiritin (5), liquiritin] |  |  | 0.53 |
